What is called melting point is the temperature, or range, at which the solid turns liquid.

As to `Cc1noc(NS(=O)(=O)c2ccccc2-c2ccc(-c3ncco3)cc2CN(CC(F)(F)F)C(C)C)c1C`, the melting point was in the range of 80 to 90 °C.

For the compound `CCC(Nc1nc(NC(C)=O)nc(C(C)F)n1)c1ccccc1` (stereo not drawn), the melting point came to 118 °C.

`O=C(O)c1cccc(-c2ccc3c(c2)N(c2ccc(Cl)c(Cl)c2)CC3)c1` returned a melting point of 205 to 206 °C.

In turn, `CC(=O)NC[C@H]1CN(c2cc(F)c(N3CCC4(CC3)CO4)c(F)c2)C(=O)O1` displayed a melting point of 160 to 162 °C.

In turn, `O=C1NC(=O)C2(c3ccc4ccc(Cl)nc4n3)C=CC=CC12` (stereo not drawn) displayed a melting point of 268 °C.

As for `Cn1c(COc2ccc(CC3SC(=O)NC3=O)cc2)cc2ccccc21` (stereo not drawn), the melting point was 174 to 176 °C.

For `CCOC(=O)c1ccc(N(C)Cc2ccc(Cl)cc2)cc1`, the melting point fell in the range of 106 to 107 °C.

The compound `NC(=S)c1c(F)c(F)c(F)c(F)c1F` displayed a melting point of 92 to 93 °C.

`O=C(O)c1nc(-c2ccc(-c3ccccc3)cc2)nc2ccccc12` displayed a melting point of 175 to 176 °C.

On to `N#Cc1cnc2ccsc2c1NCc1ccc(Cl)cc1Cl`, for which the melting point was in the range of 215 to 216 °C.

`CN(CC(O)[C@H](Cc1ccccc1)NC(=O)c1ccccc1)C(=O)N1CCC[C@H]1C(=O)O` (stereo partly drawn) came in with a melting point of 108 to 117 °C.

The compound `CCOC(=O)c1cn2c3c(cc(Br)cc3c1=O)CC2(C)C` returned a melting point of 227 to 228 °C.

Compound `C=CCOc1ncc(F)c(C2(C(=O)NN)C=CC=C(C)C2)n1` (stereo not drawn) registered a melting point of 181 to 185 °C.

In the case of `Cc1ccc(-c2[nH]c(-c3cnc4ccccc4c3)nc2C(=O)Nc2nccs2)cc1`, the melting point is greater than 250 °C.

As for `CCOC(=O)c1nnc(-c2cc3cccc(N(C)S(=O)(=O)c4cccs4)c3[nH]2)s1`, the melting point was 176 to 177 °C.

As for `C=CCN1Cc2cncn2C(c2ccc(C#N)cc2)C1=O` (stereo not drawn), the melting point fell in the range of 107 to 109 °C.

As to `CC(C)(C)C(=O)OCOc1ccc(C=O)cc1OC(=O)C(C)(C)C`, the melting point is 58 to 60 °C.

In turn, `O=C(NCCCCCNC(=O)c1ccc2c(c1)OCO2)c1ccc2c(c1)OCO2` returned a melting point of 158 to 160 °C.

Compound `COC=Nc1c(C#N)c(C)nn1-c1c(Cl)cc(C(F)(F)F)cc1Cl` showed a melting point of 75 to 78 °C.

Take `COC(=O)c1cc(Cl)cc(I)c1O`: the melting point fell in the range of 143 to 145 °C.

For the compound `Cn1nc(-c2cnc(N)nc2-c2ccc(Cl)cc2)ccc1=O`, the melting point is 264 °C.

Regarding `CS(=O)(=O)c1ccc(-c2nn3c4c(oc3c2-c2ccc(F)cc2)CSCC4)cc1`, the melting point is 178 to 180 °C.

In the case of `CCN(c1ccc(SC)cc1[N+](=O)[O-])S(=O)(=O)c1ccc(C)cc1`, the melting point was 135 to 136 °C.

Turning to `Cc1ccc(CC2CCN(C(=O)C(=O)Nc3ccc4c(c3)CC(=O)N4)CC2)cc1`, the melting point is 235 to 237 °C.

Compound `Cn1nc2c(N)nc3c(c2c1CCNC(=O)N1CCOCC1)CCCC3` displayed a melting point of 187 to 188 °C.

With `O=S(=O)(C(=CNc1ccccn1)c1ccccc1)c1ccccc1`, the melting point fell in the range of 159 to 160 °C.

The compound `Cc1cc(Oc2cccc(C(F)(F)F)c2)nn1C(N)=O` registered a melting point of 76 to 77 °C.

The compound `Nc1ccc(Sc2c(O)c3c(=O)n(-c4ccccc4)c4ccccc4c3oc2=O)cc1` returned a melting point greater than 300 °C.

Consider `CCN(CC)Cc1nc(-c2ncn3c2CN(C)C(=O)c2ccccc2-3)no1`, for which the melting point was 153 to 154 °C.

In turn, `COc1ccc(S(=O)(=O)C2(C(=O)O)CCN(Cc3ccc(-c4ccccc4)cc3)CC2)cc1` yielded a melting point of 168 °C.

On to `Cc1cc(C)c(C2C(=O)N3CCOCCN3C2=O)c(C)c1`, for which the melting point fell in the range of 248 to 250 °C.

In turn, `Cc1cc(OCc2ccccc2)c2cc(C(=O)N(C)C)[nH]c2c1` had a melting point of 205 to 207 °C.

`Cc1nc2n(c(=O)c1CCN1CCC(C(=O)c3ccc(F)cc3)CC1)CCS2`: the melting point amounted to 166 °C.

Regarding `CN(C(=O)c1ccc(C(C)(C)C)cc1)C1N(C)C(c2ccc(F)cc2)=NC1(C(F)(F)F)C(F)(F)F` (stereo not drawn), the melting point lay in the range of 129 to 130 °C.

The compound `CCCCC(=O)OC1(C(=O)CCl)CCC2C3CC(C)C4CC(=O)CCC4(C)C3(F)C(=O)CC21C` (stereo not drawn) showed a melting point of 67 to 72 °C.

`COCc1nc(N)nc(N)c1-c1ccc(Cl)c(Cl)c1`: the melting point was 204 to 206 °C.

Take `O=C(O)C1C2C=CC(C2)C1NS(=O)(=O)c1ccc(OCc2ccccc2)cc1` (stereo not drawn): the melting point was in the range of 201 to 203 °C.

`CN(C)C(=O)c1ccc2c(c1)CC(=O)N2` had a melting point of 147 to 148 °C.

The compound `CC(=O)Oc1c(C)ccc2ccccc12` yielded a melting point of 81 to 83 °C.

Take `Oc1ccc(-n2nc3ccc(Cl)cc3n2)c(O)c1`: the melting point fell in the range of 188 to 189 °C.

As for `COC(=O)c1ccc(-c2nnc(CSCCCCOc3ccccc3)o2)cc1`, the melting point lay within 98 to 105 °C.

With `NC(=O)C(OC(=O)Nc1cccc(Cl)c1)(C(N)=O)c1ccccc1`, the melting point was in the range of 196 to 198 °C.

Turning to `CC(=O)C(=Cc1ccc(S(C)(=O)=O)c(Cl)c1)C(C)=O`, the melting point was 140 to 142 °C.

In turn, `Cc1cc2c(c(C(O)=S)c1)OCCO2` came in with a melting point of 181 to 183 °C.

`CCOC(=O)C=Cc1cnc2ccccc2c1` showed a melting point of 86.5 to 88 °C.

Compound `N#Cc1c(O)csc1N1CCOCC1` registered a melting point of 191 °C.

In turn, `CCOC(=O)C(Cc1cc(Cl)c(Sc2ccc(OC)c(Cc3ccc(OC)nc3)c2)c(Cl)c1)(NC(C)=O)C(=O)OCC` had a melting point of 170 to 171 °C.

Turning to `Cc1oc(-c2ccccc2)nc1/C=C/c1ccc(Br)cc1`, the melting point lay within 138 to 139 °C.

Take `CCCCC/C(=C\c1ccccc1)CNc1cccc(-c2ccnc3c(C(=O)c4cccs4)cnn23)c1`: the melting point is 110 to 112 °C.

The compound `NC(=O)N1C(=O)C(C(=O)c2sccc2Br)c2cc(Cl)ccc21` (stereo not drawn) gave a melting point of 216 to 217 °C.

As to `CC(C)NC(=O)CCC(=NNC(N)=S)c1ccccc1`, the melting point lay within 66 to 71 °C.

Regarding `COCS(=O)(=O)[C@H](C)[C@](O)(Cn1cncn1)c1ccc(F)cc1F`, the melting point was 102 to 103 °C.

Compound `COc1c(Cl)cc(OCC=C(Cl)Cl)cc1C=NO` returned a melting point of 111 °C.

On to `CC(Cc1ccccc1)(C(=NC#N)NCc1ccco1)c1ccccn1` (stereo not drawn), for which the melting point is 152 to 154 °C.

On to `Cc1cc(-c2coc3ccc(-c4nnc(C)o4)cc23)ccn1`, for which the melting point is 151 to 152 °C.

For the compound `COc1cccc2c1NCn1cc(CO)cc1-2`, the melting point was 137 to 138 °C.

Regarding `Cn1c(=Nc2nc(C(Cl)(Cl)Cl)nc(C(Cl)(Cl)Cl)n2)sc2ccccc21`, the melting point lay within 251 to 253 °C.

Turning to `COc1ccc(N(C)CC2CCOCC2)cc1N`, the melting point lay within 97 to 99 °C.

On to `CCOC(=O)c1c(C(F)(F)F)nc(C(F)F)c(C(=O)OC)c1F`, for which the melting point lay in the range of 40 to 41 °C.

Regarding `Cc1nc2ccccn2c(=O)c1CCN1CCC(=C(c2ccc(F)cc2)c2ccc(F)cc2)CC1`, the melting point is 109 °C.

Compound `CCCCCCCC(=O)Nc1ccn(C2OC(CO)C(O)C2O)c(=O)n1` (stereo not drawn) yielded a melting point of 151 to 153 °C.

The compound `CS(=O)(=O)Nc1ccc2ccccc2c1-c1c(P(=O)(c2ccccc2)c2ccccc2)ccc2ccccc12` returned a melting point of 282 °C.

`CCCCN1CCC(CNC(=O)c2cc(Cl)c(NC)n3ccnc23)CC1` showed a melting point of 148 °C.

The compound `Cc1c(N=C2NCCN2)cccc1N(C)C` returned a melting point of 116 to 118 °C.

As for `CN1C=C(c2ccccc2)c2cccc(NC(=O)C=NO)c2C1`, the melting point was determined as 151 °C.

`O=C(Nc1ccc(-c2ccc3c(NC(=O)c4ccccc4)n[nH]c3c2F)cc1)Nc1cc(C(F)(F)F)ccc1F` registered a melting point of 206 to 207 °C.

`COC(=O)C(=O)c1ccc(OCCOc2ccc3ccccc3c2)c(C)c1` yielded a melting point of 118 to 119 °C.

The compound `CC(O)(Cc1ccc(C#N)cc1)Cc1ccc(C#N)cc1` yielded a melting point of 147 to 148 °C.

`CCOC(=O)c1c(NCc2ccc(OC)c(Cl)c2)ccnc1Cl` displayed a melting point of 116 to 118 °C.

With `Cc1c(NC(=O)CC(C)(C)C)cc2c(c1C)OC(C)(C)C2c1ccccc1C(C)C` (stereo not drawn), the melting point fell in the range of 188 to 189 °C.

The compound `NCc1cccc(Cn2ccc(OCc3ccc(F)cc3F)c(Br)c2=O)c1F` displayed a melting point of 160 to 163 °C.

In turn, `CCOC(=O)COc1ccc(Oc2ccc3cc(Cl)ccc3n2)cc1` came in with a melting point of 95 °C.

The compound `CC(C)n1nc(-c2c(-c3ccccc3)nn3ccc(C(=O)NCCN(C)C)cc23)ccc1=O` gave a melting point of 157 to 158 °C.

On to `COC(=O)c1ccc(COc2ccc(-c3cc(O)c(SCCc4ccccc4)c(=O)o3)cc2)cc1`, for which the melting point lay in the range of 157 to 158 °C.

As to `CCCCOc1cc(C(=O)O)cc(N)c1C(=O)c1ccc(Cl)cc1`, the melting point is 286 to 288 °C.

`Cc1cc(C)c(COc2cccnc2NC(=S)Nc2ccc(Cl)cc2)c(C)c1`: the melting point is 180 to 182 °C.

`NC1=NN(c2cccc(C(F)(F)F)c2)CC1` registered a melting point of 104 to 107 °C.

Consider `COc1cc2c(cc1Nc1ncc(Cl)c(Nc3ccc(N4CCOCC4)cc3OC)n1)CCN(CC(=O)N(C)C)CC2`, for which the melting point was 67 to 76 °C.

With `CCCCNc1cncc(C#N)c1`, the melting point turned out to be 73 °C.

Regarding `CC1(C)CC(=C(c2ccc(O)cc2)c2ccc(-c3ccc(CO)cc3)cc2)CC(C)(C)C1`, the melting point lay within 222 to 223 °C.

In turn, `CN(C)Cc1nc(-c2ncn3c2[C@@H]2CCN2C(=O)c2cc(F)ccc2-3)no1` yielded a melting point of 150 to 155 °C.

For the compound `CCC(Oc1cccc(N(C)C)c1)C(=O)OC1CC(O)C=C2C=CC(C)C(CCC3CC(O)CC(=O)O3)C21` (mixture of isomers), the melting point is 124 to 126 °C.

Compound `Cc1ccc(NC(=O)c2cnn3c(C(F)F)cc(-c4ccc(C(F)(F)F)cc4)nc23)cc1S(N)(=O)=O` yielded a melting point of 249 °C.

Compound `c1ccc2c(c1)[nH]c1c2nc2ncccn21` registered a melting point of 96 to 98 °C.

In turn, `N#Cc1ccc(OCCCCCCOc2cccc(-c3cc4ccc(C#N)cc4o3)c2)cc1` registered a melting point of 125 to 127 °C.

In the case of `C#CCNC(=NCCSCc1ncccc1Cl)NC#N`, the melting point lay in the range of 115 to 116 °C.

Consider `O=C(O)CC1(c2ccccc2)Oc2ccccc2O1`, for which the melting point was in the range of 152 to 153 °C.

As to `CC1(C)CCc2c(Cl)cc(O)cc21`, the melting point lay within 86.5 to 87.5 °C.
